Consider 11 molecules from ChEMBL document CHEMBL1201862, “PubChem BioAssay data set” (2004).

Structures are written as SMILES.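 How tested: cells in 96-well plates exposed to compound for 48 hours at five concentrations. Here, GI50 denotes the concentration required for 50% inhibition of growth.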 Active and inactive are the calls of the source. Rule as the data show it: active = GI50 up to about 1.1 µM and inactive = higher. Some results are limits rather than exact numbers.

Test systems include A498; A549; EKVX; HCC 2998; HCT-15; K562; M14; NCI/ADR-RES; OVCAR-3; OVCAR-4; OVCAR-8; PC-3; RXF 393; SK-MEL-5; SR; TK-10; U-251; UACC-257; UO-31; HOP-62.
Holding throughout (test): DTP human tumour cell line panel, 48 h

By GI50 is commonly meant the concentration giving 50% growth inhibition. On to `C1OCN2c3nonc3N3COCN4c5nonc5N1C2C43` (configuration not stated), for which the GI50 was > 100 µM (inactive) in the assay on A498; > 100 µM (inactive) in the assay on A549; > 100 µM (inactive) with EKVX; 68.4 µM (inactive) with HCC 2998; 65.9 µM in the assay on HCT-15; 78 µM (inactive) in the assay on K562. Besides, the GI50 with M14, in the assay on NCI/ADR-RES, in the assay on OVCAR-3, in the assay with OVCAR-4, in the assay with OVCAR-8 and in the assay on PC-3 was > 100 µM (inactive) each time. For the same molecule, the GI50 in the assay on RXF 393, in the assay on SK-MEL-5, in the assay with SR, in the assay with TK-10, in the assay with U-251 and in the assay on UACC-257 was > 100 µM (inactive) each time. In addition, in the assay with UO-31, the GI50 was > 100 µM (inactive).

Take `CC(C)(C)c1ccc2c(c1)CNCCNCc1cc(C(C)(C)C)ccc1OCC1(CO2)COc2ccc(C(C)(C)C)cc2CNCCNCc2cc(C(C)(C)C)ccc2OC1`: the GI50 with A498 was 0.857 µM (active); in the assay with A549 it was 0.433 µM (active); in the assay with EKVX, 1.27 µM (inactive); with HCC 2998 it was 0.335 µM (active); with HCT-15 it was 0.931 µM; with HOP-62 it was 1.66 µM (inactive). Further, the GI50 is 0.213 µM (active) in the assay with K562; 0.467 µM (active) in the assay with M14; 1.63 µM (inactive) in the assay with NCI/ADR-RES; 1.61 µM (inactive) in the assay with OVCAR-3; 1.53 µM (inactive) with OVCAR-4; 0.935 µM (active) with OVCAR-8. Also, the GI50 in the assay with PC-3 was 1.58 µM (inactive); in the assay with RXF 393, 1.42 µM (inactive); in the assay on SK-MEL-5 it was 1.23 µM (inactive); in the assay on SR, 0.129 µM (active); with TK-10, 1.85 µM (inactive); in the assay on U-251, 0.242 µM (active). In addition, the GI50 in the assay on UACC-257 was 1.54 µM (inactive); with UO-31 it was 1.8 µM (inactive).

With `COc1ncc(C=C(C#N)C#N)c(OC)n1`, the GI50 in the assay on A498 is > 100 µM (inactive); in the assay on A549 it was > 100 µM (inactive); in the assay on EKVX it was 79.8 µM (inactive); in the assay with HCT-15, 29.9 µM; in the assay with HOP-62, 83.6 µM (inactive); in the assay with K562 it was 38.6 µM (inactive). The GI50 is 18.7 µM (inactive) in the assay with M14; 22.6 µM (inactive) in the assay with NCI/ADR-RES; 57.9 µM (inactive) in the assay with OVCAR-3; 48.9 µM (inactive) with OVCAR-4; 24.2 µM (inactive) with OVCAR-8; 39.2 µM (inactive) with PC-3. Further, the GI50 in the assay with RXF 393 is > 100 µM (inactive); in the assay with SK-MEL-5, 29.3 µM (inactive); in the assay on SR, 15.3 µM (inactive); with TK-10, 37.3 µM (inactive); in the assay with U-251, 43.6 µM (inactive); in the assay with UACC-257, 22.1 µM (inactive). In addition, in the assay on UO-31, the GI50 is 21.1 µM (inactive).

Regarding `COc1ccc(OC)c2c1C=CC(Br)=CC2`, the GI50 in the assay on A498 is 0.324 µM (active); in the assay on A549, 0.303 µM (active); in the assay with EKVX, 0.309 µM (active); with HCC 2998, 0.195 µM (active); in the assay with HCT-15, 0.201 µM; with HOP-62, 0.269 µM (active). For the same molecule, the GI50 with K562 is 0.173 µM (active); in the assay with M14, 0.237 µM (active); in the assay on NCI/ADR-RES, 0.296 µM (active); in the assay on OVCAR-3, 0.276 µM (active); in the assay with OVCAR-4, 0.4 µM (active); in the assay with OVCAR-8, 0.43 µM (active). Further, the 50% growth inhibitory concentration (GI50) was 0.352 µM (active) in the assay with PC-3; 0.216 µM (active) in the assay with SK-MEL-5; 0.191 µM (active) in the assay with SR; 0.292 µM (active) with TK-10; 0.43 µM (active) in the assay with U-251; 0.255 µM (active) in the assay with UACC-257. In the assay with UO-31, the GI50 was 0.332 µM (active).

For `Cc1ccc(S(=O)(=O)N(CC(O)COc2ccccc2)c2c(F)c(F)c(F)c(F)c2F)cc1` (configuration not stated), the GI50 is 17.1 µM (inactive) in the assay on A498; 13.4 µM (inactive) in the assay with A549; 17.9 µM (inactive) in the assay on EKVX; 17.3 µM (inactive) in the assay on HCC 2998; 16.5 µM in the assay on HCT-15; 16.7 µM (inactive) in the assay on HOP-62. Also, the GI50 in the assay on M14 was 20 µM (inactive); in the assay with NCI/ADR-RES, 17 µM (inactive); in the assay on OVCAR-3, 17.3 µM (inactive); in the assay on OVCAR-4 it was 13.3 µM (inactive); in the assay on OVCAR-8 it was 17.1 µM (inactive); in the assay with PC-3, 13.6 µM (inactive). For the same molecule, the GI50 with SK-MEL-5 is 12.4 µM (inactive); with SR, 20.7 µM (inactive); with TK-10, 24.7 µM (inactive); in the assay with U-251, 13.2 µM (inactive); with UO-31 it was 12.6 µM (inactive).

`Cc1ccc(/C=C2\CCCC(CN3CCCCC3)C2=O)cc1` (configuration not stated): the GI50 is 13.4 µM (inactive) in the assay on A498; 17.7 µM (inactive) in the assay with A549; 17.6 µM (inactive) in the assay with EKVX; 15.3 µM (inactive) in the assay with HCC 2998; 2.14 µM with HCT-15; 20.3 µM (inactive) with HOP-62. Moreover, the GI50 was 1.57 µM (inactive) with K562; 5.38 µM (inactive) in the assay on NCI/ADR-RES; 1.87 µM (inactive) with OVCAR-3; 1.79 µM (inactive) in the assay on OVCAR-4; 2.64 µM (inactive) with OVCAR-8; 2.79 µM (inactive) in the assay with PC-3. Moreover, the GI50 in the assay on RXF 393 is 1.56 µM (inactive); in the assay with SK-MEL-5, 4.66 µM (inactive); in the assay with SR, 0.767 µM (active); in the assay on TK-10, 3.22 µM (inactive); in the assay on U-251, 14.3 µM (inactive); with UACC-257 it was 1.93 µM (inactive). For the same molecule, the GI50 in the assay with UO-31 was 1.84 µM (inactive).

For the molecule `Cc1cccc(-n2c(C)nc3ccc(NC4OC(CO)C(O)C(O)C4O)cc3c2=O)c1` (configuration not stated), the GI50 with A498 was > 100 µM (inactive); in the assay with EKVX, > 100 µM (inactive); in the assay with HCC 2998, > 100 µM (inactive); in the assay with HCT-15 it was more than 100 µM; with HOP-62, > 100 µM (inactive); with K562, > 100 µM (inactive). Further, the GI50 in the assay with NCI/ADR-RES, in the assay on OVCAR-3, with OVCAR-4, with OVCAR-8, in the assay on PC-3 and in the assay on RXF 393 was > 100 µM (inactive) in each case. The GI50 in the assay on SK-MEL-5 is > 100 µM (inactive); with SR, 50.7 µM (inactive); in the assay on TK-10, > 100 µM (inactive); with U-251 it was > 100 µM (inactive); with UACC-257, > 100 µM (inactive); with UO-31 it was > 100 µM (inactive).

In the case of `C[C@@H]1C[C@](O)([C@@H](C)Cl)C(=O)O[C@@H]2CCN3CC=C(COC(=O)[C@]1(C)O)[C@H]23`, the GI50 was > 100 µM (inactive) with A498; > 100 µM (inactive) in the assay with A549; > 100 µM (inactive) with EKVX; > 100 µM (inactive) with HCC 2998; more than 100 µM with HCT-15; > 100 µM (inactive) in the assay with HOP-62. Further, the GI50 with K562, with M14, in the assay with NCI/ADR-RES, in the assay on OVCAR-3, in the assay on OVCAR-4 and in the assay on OVCAR-8 was > 100 µM (inactive) in each case. Moreover, the GI50 in the assay with PC-3, with SK-MEL-5, in the assay on SR, with TK-10, with U-251 and in the assay on UACC-257 was > 100 µM (inactive) each time. In addition, the GI50 in the assay on UO-31 was > 10 µM (inactive).

In the case of `COc1nc(N)nc2c1ncn2C1CC(O)C(CO)O1` (configuration not stated), the GI50 with A498 is > 100 µM (inactive); with A549, > 100 µM (inactive); in the assay on EKVX, > 100 µM (inactive); in the assay on HCT-15, more than 100 µM; in the assay on HOP-62 it was > 100 µM (inactive); in the assay on K562 it was > 100 µM (inactive). Moreover, the GI50 with M14, in the assay on NCI/ADR-RES, with OVCAR-3, with OVCAR-4, with OVCAR-8 and in the assay with PC-3 was > 100 µM (inactive) throughout. Besides, the GI50 in the assay with RXF 393, in the assay with SK-MEL-5, in the assay with SR, in the assay on TK-10, in the assay on U-251 and in the assay on UACC-257 was > 100 µM (inactive) throughout. The GI50 with UO-31 was > 100 µM (inactive).

As to `O=S(=O)(O)c1cccc2c(/N=N/c3c(O)ccc4ccccc34)cccc12`, the GI50 with A498 is > 100 µM (inactive); in the assay on A549 it was > 100 µM (inactive); in the assay with EKVX it was > 100 µM (inactive); in the assay on HCT-15 it was more than 100 µM; in the assay with HOP-62 it was > 100 µM (inactive); in the assay on K562, > 100 µM (inactive). Also, the GI50 in the assay on M14, with NCI/ADR-RES, in the assay with OVCAR-3, with OVCAR-4, with OVCAR-8 and in the assay on PC-3 was > 100 µM (inactive) throughout. Moreover, the GI50 was > 100 µM (inactive) in the assay with RXF 393; 46.2 µM (inactive) in the assay on SK-MEL-5; > 100 µM (inactive) in the assay with SR; > 100 µM (inactive) in the assay with TK-10; > 100 µM (inactive) in the assay on U-251; > 100 µM (inactive) in the assay on UACC-257. In addition, the GI50 in the assay with UO-31 is > 100 µM (inactive).

Take `c1ccc(-c2nc(-c3ccccc3)c(-c3ccccc3)[nH]2)cc1`: the GI50 in the assay on A498 is > 100 µM (inactive); in the assay with A549 it was > 100 µM (inactive); in the assay with EKVX, > 83.6 µM (inactive); in the assay on HCC 2998, > 100 µM (inactive); in the assay with HCT-15 it was more than 100 µM; with HOP-62, > 85.5 µM (inactive). In addition, the GI50 in the assay with M14 was > 100 µM (inactive); in the assay on NCI/ADR-RES it was 60.3 µM (inactive); in the assay on OVCAR-3, > 100 µM (inactive); in the assay with OVCAR-4, 85.9 µM (inactive); in the assay on OVCAR-8 it was > 66.1 µM (inactive); with PC-3, > 100 µM (inactive). Further, the GI50 in the assay on RXF 393 was > 100 µM (inactive); in the assay with SK-MEL-5 it was > 100 µM (inactive); in the assay on SR, 17.5 µM (inactive); in the assay with TK-10, > 100 µM (inactive); in the assay with U-251, 42.3 µM (inactive); with UACC-257 it was > 85.5 µM (inactive). In addition, the GI50 in the assay with UO-31 is > 100 µM (inactive).
